One assay deals with Staphylococcus aureus. The experiment in a line: Antimicrobial activity against Staphylococcus aureus DSM346 by serial dilution assay. The class given is functional.
The subject of the next assay is Micrococcus luteus. The experiment in a line: Antimicrobial activity against Micrococcus luteus DSM 1790 by serial dilution assay. The class given is functional.
A further assay deals with Escherichia coli. The experiment in a line: Antimicrobial activity against Escherichia coli harboring TolC mutant by serial dilution assay. The class given is functional.
The subject of a further assay is Bacillus subtilis. Kind of assay: Antimicrobial activity against Bacillus subtilis DSM 10 by serial dilution assay. Format: functional.
For another assay, the system named is Rhodotorula glutinis. The experiment in a line: Antimicrobial activity against Rhodotorula glutinis DSM 10134 by serial dilution assay. The class given is functional, organism-based.
The subject of the next assay is Mucor plumbeus. Kind of assay: Antimicrobial activity against Mucor plumbeus MUCL49355 by serial dilution assay. The class given is functional.
The next assay deals with A-431. The experiment in a line: Cytotoxicity against human A431 cells by MTT assay. Format: functional, cell-based.
Another assay deals with KB 3-1. The experiment in a line: Cytotoxicity against human KB3-1 cells by MTT assay. The class given is functional, cell-based. For orientation: Tetrazolium dyes change colour on reduction, which living cells bring about.
The next assay has as its system L929. Kind of assay: Cytotoxicity against mouse L929 cells by MTT assay. Format: cell-based.
The test system of a further assay is MCF7. Kind of assay: Cytotoxicity against human MCF7 cells by MTT assay. The class given is functional, cell-based.

≈ marks a conversion by molar mass, not a printed value. Calls of active or inactive are those of the source.

One may read the MIC as the smallest concentration in the dilution series that meets the test's criterion for growth inhibition. High values mean a less susceptible organism, low ones a more susceptible organism. Consider `CC1=C/C(=C2/[C@H](C)CC[C@@H]2C(C)C)OC1=O`, for which the MIC against Staphylococcus aureus was 33.3 to 66.7 µg/mL (≈ 151 to 303 µM); against Micrococcus luteus, 33.3 to 66.7 µg/mL (≈ 151 to 303 µM); with Escherichia coli, 33.3 to 66.7 µg/mL (≈ 151 to 303 µM); with Bacillus subtilis, 33.3 to 66.7 µg/mL (≈ 151 to 303 µM); against Mucor plumbeus it was 8.3 µg/mL (≈ 37.7 µM). In addition, the outcome in the assay on Rhodotorula glutinis was Active.
For `CC1=CC(=O)[C@]2(C1=O)[C@H](C)CC[C@@H]2[C@H](C)CO`, in the assay with Rhodotorula glutinis, the result was Active.
By IC50 is commonly meant the concentration that gives 50% inhibition. High values mean weaker potency, low ones greater potency. For the compound `Cc1cc(C2=C(C(C)C)CC[C@H]2C)oc(=O)c1O`, the MIC against Staphylococcus aureus, with Micrococcus luteus, in the assay on Escherichia coli and in the assay with Bacillus subtilis was 33.3 to 66.7 µg/mL (≈ 134 to 269 µM) in each case. The IC50 amounted to 12 µM in the assay on A-431, 2.9 µM in the assay on KB 3-1, 5.6 µM in the assay on L929 and 9.3 µM in the assay with MCF7. Besides, the result in the assay on Rhodotorula glutinis was Active.
Regarding `CC1=C/C(=C2/[C@H](C)CC[C@@H]2[C@H](C)CO)OC1=O`, the outcome in the assay with Rhodotorula glutinis was Active. In the assay on Mucor plumbeus, this compound registered an MIC of 8.3 µg/mL (≈ 35.1 µM).
Consider `Cc1cc([C@]23OC[C@@H](C)[C@H]2CC[C@H]3C)oc(=O)c1O`, for which, in the assay with Rhodotorula glutinis, the outcome was Active.
The same measure, in the same setting: as for `CC1=C/C(=C2\[C@H](C)CC[C@@H]2[C@H](C)CO)OC1=O`, the entry is “Active”.
On the same count and under the same terms, as for `CC1=C(O)C(=O)[C@]23C(=O)[C@H]1[C@H](O)[C@@H](C)[C@H]2CC[C@H]3C`, the entry is “Active”.

Source of the values: ChEMBL document CHEMBL4613230, “Antifungal Sesquiterpenoids, Rhodocoranes, from Submerged Cultures of the Wrinkled Peach Mushroom, Rhodotus palmatus” (J Nat Prod, 2020).
